Measured values from paper PMC6648297 (ACS Omega, 2019).

Molecular target: Pin1 (Homo sapiens, UniProt Q13526)
Test: SensoLyte Green fluorimetric PPIase activity assay, dose-response
Assay type: biochemical

Pin1, sequence (Q13526 whole entry): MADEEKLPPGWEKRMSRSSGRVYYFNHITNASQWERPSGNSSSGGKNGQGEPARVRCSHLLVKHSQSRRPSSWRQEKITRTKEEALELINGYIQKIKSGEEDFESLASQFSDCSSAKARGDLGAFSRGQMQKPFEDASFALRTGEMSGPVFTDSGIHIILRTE

For `CCOC(=O)CN1C(=O)c2ccc3c4c(ccc(c24)C1=O)C(=O)N(CC(=O)OCC)C3=O` [PiB], the EC50 was roughly 10 µM.
